Columns and labels:
Type in all cases: functional
Mus musculus [1] = assay: Analgesic activity in sc dosed mouse assessed as phenylquinone-induced writhing measured for 10 mins
Mus musculus [2] = assay: Narcotic antagonist activity in sc dosed mouse assessed as reversal of oxymorphone-induced straub tail response administered 10 mins before oxymorphone challenge
Rattus norvegicus [3] = assay: Analgesic activity in sc dosed rat assessed as phenylquinone-induced writhing measured for 10 mins
Mus musculus [4] = assay: Narcotic antagonist activity in sc dosed mouse assessed as reversal of oxymorphone-induced narcosis
Rattus norvegicus [5] = species: Rattus norvegicus; assay: Antagonist activity in rat assessed as morphine-induced analgesia by […] tail flick test
[6] = Mus musculus, sc, 10 min, read-out: ED50
[7] = Mus musculus, sc, read-out: ED50

Row | Compound | ED50 (Mus musculus [1]; [6]) | ED50 (Mus musculus [2]; [7]) | ED50 (Mus musculus [1]) | ED50 (Mus musculus [2]) | ED50 (Rattus norvegicus [3]) | ED50 (Mus musculus [4]) | ED50 (Rattus norvegicus [5])
1 | C=CCC12CCN(C)C(Cc3ccc(O)cc31)[C@@H]2O (stereo partly specified) | > 40 mg/kg | > 40 mg/kg |  |  |  |  | 
2 | CC1CC23CCN(C)C(Cc4ccc(O)cc42)C3(C)O1 (stereo unspecified) | 0.4 mg/kg | > 40 mg/kg |  |  |  |  | 
3 | CC1CC23CCN(CC4CC4)C(Cc4ccc(O)cc42)C3(C)O1 (stereo unspecified) | > 40 mg/kg | 5 mg/kg |  |  |  |  | 
4 | CN1CC[C@]23CCCO[C@@H]2[C@H]1Cc1ccc(O)cc13 | 30 mg/kg | > 40 mg/kg |  |  |  |  | 
5 | Oc1ccc2c(c1)[C@@]13CCCO[C@@H]1[C@@H](C2)N(CC1CC1)CC3 | 8.4 mg/kg | 20 mg/kg |  |  |  |  | 
6 | C=CCC12CCN(CC3CC3)C(Cc3ccc(O)cc31)[C@@H]2O (stereo partly specified) | 0.23 mg/kg | 1.9 mg/kg |  |  |  |  | 
7 | C=CCC12CCN(CC3CCC3)C(Cc3ccc(O)cc31)[C@@H]2O (stereo partly specified) | 11 mg/kg | 4.5 mg/kg |  |  |  |  | 
8 | C=CCC12CCN(CC3CC3)C(Cc3ccc(O)cc31)[C@]2(C)O (stereo partly specified) | > 40 mg/kg | 0.8 mg/kg |  |  |  |  | 
9 | C=CCC12CCN(CC3CCC3)C(Cc3ccc(O)cc31)[C@]2(C)O (stereo partly specified) | 1.3 mg/kg | 10 mg/kg |  |  |  |  | 
10 | CC1CC23CCN(C)C(Cc4ccc(O)cc42)C3O1 (stereo unspecified) | 1.8 mg/kg | > 40 mg/kg |  |  |  |  | 
11 | CN1CC[C@]23CCCO[C@]2(C)[C@H]1Cc1ccc(O)cc13 | > 40 mg/kg | > 40 mg/kg |  |  |  |  | 
12 | C[C@]12OCCC[C@@]13CCN(CC1CC1)[C@@H]2Cc1ccc(O)cc13 | 35 mg/kg | 6 mg/kg |  |  |  |  | 
13 | C[C@]12OCCC[C@@]13CCN(CC1CCC1)[C@@H]2Cc1ccc(O)cc13 | 16 mg/kg | 5 mg/kg |  |  |  |  | 
14 | CN1CC[C@]23CCCO[C@H]2[C@H]1Cc1ccc(O)cc13 | 0.6 mg/kg | > 40 mg/kg |  |  |  |  | 
15 | CN1CC[C@]23CCCO[C@@]2(C)[C@H]1Cc1ccc(O)cc13 | 0.03 mg/kg | > 40 mg/kg |  |  |  |  | 
16 | Oc1ccc2c(c1)[C@@]13CCCO[C@H]1[C@@H](C2)N(CC1CCC1)CC3 | 0.15 mg/kg | 10 mg/kg |  |  |  |  | 
17 | C[C@@]12OCCC[C@@]13CCN(CC1CCC1)[C@@H]2Cc1ccc(O)cc13 | 0.068 mg/kg | 23 mg/kg |  |  |  |  | 
18 | C=CCN1CC[C@]23CCCO[C@@]2(C)[C@H]1Cc1ccc(O)cc13 | 28 mg/kg | 1 mg/kg |  |  |  |  | 
19 | CC(C)=CCN1CC[C@]23CCCO[C@@]2(C)[C@H]1Cc1ccc(O)cc13 | 0.18 mg/kg | > 40 mg/kg |  |  |  |  | 
20 | Oc1ccc2c(c1)[C@@]13CCCO[C@H]1[C@@H](C2)N(CC1CC1)CC3 (stereo in doubt; 6c) |  |  | 0.03 mg/kg | 0.3 mg/kg |  |  | 
21 | C[C@@]12OCCC[C@@]13CCN(CC1CC1)[C@@H]2Cc1ccc(O)cc13 (stereo in doubt; 6d) |  |  | 0.19 mg/kg | 0.61 mg/kg |  |  | 
22 | Oc1ccc2c(c1)[C@@]13CCCO[C@H]1[C@@H](C2)N(CC1CC1)CC3 (stereo in doubt; (+)-6c) |  |  | >40 mg/kg | >40 mg/kg |  |  | 
23 | C[C@@]12OCCC[C@@]13CCN(CC1CC1)[C@@H]2Cc1ccc(O)cc13 (stereo in doubt; (+)-6d) |  |  | >40 mg/kg | >40 mg/kg |  |  | 
24 | Oc1ccc2c(c1)[C@@]13CCCO[C@H]1[C@@H](C2)N(CC1CC1)CC3 (stereo in doubt; (-)-6c) |  |  | 0.013 mg/kg | 0.26 mg/kg | 0.09 mg/kg | 0.04 mg/kg | 0.097 mg/kg
25 | C[C@@]12OCCC[C@@]13CCN(CC1CC1)[C@@H]2Cc1ccc(O)cc13 (stereo in doubt; (-)-6d) |  |  | 0.105 mg/kg | 0.2 mg/kg | 0.2 mg/kg | 0.014 mg/kg | 0.021 mg/kg
26 | Oc1ccc2c(c1)[C@@]13CCCC[C@@]1(O)[C@@H](C2)N(CC1CCC1)CC3 [BUTORPHANOL] | 0.051 mg/kg | 0.98 mg/kg |  |  | 0.04 mg/kg | 0.27 mg/kg | 0.43 mg/kg
27 | Oc1ccc2c(c1)[C@@]13CCCC[C@H]1[C@@H](C2)N(CC1CC1)CC3 [CYCLORPHAN] | 0.013 mg/kg | 0.32 mg/kg |  |  | 0.028 mg/kg | 0.1 mg/kg | 0.032 mg/kg
28 | Oc1ccc2c(c1)[C@@]13CCCC[C@@]1(O)[C@@H](C2)N(CC1CC1)CC3 [OXILORPHAN] | 12.8 mg/kg | 0.19 mg/kg |  |  | 8 mg/kg | 0.03 mg/kg | 0.012 mg/kg
